Patent publication US11365188B2, “JAK inhibitors” (priority 2018, dated 2022)

What was measured:
Assay type in all cases: biochemical
JAK2 = JAK2 (Homo sapiens, UniProt O60674); assay: JAK2 Assay (Caliper EZ Reader, fluoresceinated peptide); conditions: ATP 11.4 μM; JAK2 0.25 nM; 15 minutes at room temperature; read-out: JAK2 inhibition
Procedure: JAK2 Assay 384-well plates in the left foot butoxy measured progress. The final assay volume was 25 μL, 250 nL 100× compounds, 10 μL enzyme mix and 15 μL substrate mix (fluoresceinated peptide and ATP) in assay buffer (50 mM HEPES (pH 7.5), 10 mM MgCl2, 0.01% TritonX-100, 0.01% Brij35, 0.5 mM EGTA and 2 mM DTT) prepared as test compound By mixing the JAK2 with substrates and test compounds to start the reaction. The reaction mixture was incubated for 15 minutes at room temperature, then added 30 μL stop buffer for each sample to terminate the reaction with 50 mM EDTA. After termination of the kinase reaction, the proportion of phosphorylated product was determined as a fraction of total peptide substrate using Caliper EZ Reader 1 Inhibition data were calculated by comparison with 100% of the reaction mixture without enzyme inhibition and vehicle-only reaction mixture billion % inhibition compared. The final concentration of reagents in the assays is: ATP, 11.4 μM; JAK2 fluorescent peptide (5-FAM-EEPLYWSFPAKKK-CONH2), 3 μM; JAK2, 0.25 nM; and DMSO, 1%. Dose response curve were generated to determine the concentration required for IC50 of JAK2 activity.

JAK3 = target: T1, JAK3 (Homo sapiens, UniProt P52333); assay: JAK3 Assay (Caliper EZ Reader, fluoresceinated peptide); conditions: ATP 3.5 μM; JAK3 0.5 nM; 30 minutes at room temperature; read-out: JAK3 inhibition
T1 sequence (P52333 1-1124): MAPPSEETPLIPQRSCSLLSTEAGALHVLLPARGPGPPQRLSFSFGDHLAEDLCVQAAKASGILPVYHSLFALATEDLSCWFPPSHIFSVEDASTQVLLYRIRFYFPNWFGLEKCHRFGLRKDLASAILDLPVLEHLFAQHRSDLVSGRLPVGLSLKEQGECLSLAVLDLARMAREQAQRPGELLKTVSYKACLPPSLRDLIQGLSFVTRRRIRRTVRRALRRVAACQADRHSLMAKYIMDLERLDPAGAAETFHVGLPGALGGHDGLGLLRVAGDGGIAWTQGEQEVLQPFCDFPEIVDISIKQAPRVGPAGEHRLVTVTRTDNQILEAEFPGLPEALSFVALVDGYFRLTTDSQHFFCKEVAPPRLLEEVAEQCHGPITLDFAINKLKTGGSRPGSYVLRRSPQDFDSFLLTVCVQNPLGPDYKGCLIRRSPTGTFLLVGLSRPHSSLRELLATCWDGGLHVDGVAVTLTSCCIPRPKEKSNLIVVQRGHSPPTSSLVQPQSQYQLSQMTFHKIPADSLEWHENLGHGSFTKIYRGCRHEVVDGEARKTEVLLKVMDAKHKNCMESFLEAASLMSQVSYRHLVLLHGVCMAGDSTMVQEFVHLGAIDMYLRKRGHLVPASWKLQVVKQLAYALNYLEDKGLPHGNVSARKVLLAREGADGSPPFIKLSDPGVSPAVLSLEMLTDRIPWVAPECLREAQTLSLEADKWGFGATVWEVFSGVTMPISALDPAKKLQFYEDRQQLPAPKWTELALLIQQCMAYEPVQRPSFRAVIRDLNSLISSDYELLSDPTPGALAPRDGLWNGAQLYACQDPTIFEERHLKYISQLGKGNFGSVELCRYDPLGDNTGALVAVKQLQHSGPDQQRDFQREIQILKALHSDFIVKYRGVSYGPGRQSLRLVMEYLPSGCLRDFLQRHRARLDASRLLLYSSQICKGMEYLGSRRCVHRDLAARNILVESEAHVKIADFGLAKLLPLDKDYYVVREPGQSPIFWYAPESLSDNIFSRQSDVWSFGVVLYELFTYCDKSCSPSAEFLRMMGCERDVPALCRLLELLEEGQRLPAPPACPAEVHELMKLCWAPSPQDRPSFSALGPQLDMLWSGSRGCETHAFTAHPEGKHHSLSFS
Procedure: JAK3 Assay 384-well plates in the left foot butoxy measured progress. The final assay volume was 25 μL, 250 nL 100× compounds, 10 μL enzyme mix and 15 μL substrate mix (fluoresceinated peptide and ATP) in assay buffer (50 mM HEPES (pH 7.5), 10 mM MgCl2, 0.01% TritonX-100, 0.01% Brij35, 0.5 mM EGTA and 2 mM DTT) prepared as test compound. By mixing the JAK3 with substrates and test compounds to start the reaction. The reaction mixture was incubated for 30 minutes at room temperature, then added 30 μL stop buffer for each sample to terminate the reaction with 50 mM EDTA. After termination of the kinase reaction, the proportion of phosphorylated product was determined as a fraction of total peptide substrate using Caliper EZ Reader II. Inhibition data were calculated by comparison with 100% of the reaction mixture without enzyme inhibition and vehicle-only reaction mixture billion % inhibition compared. The final concentration of reagents in the assays is: ATP, 3.5 μM; JAK3 fluorescent peptide (5-FAM-EEPLYWSFPAKKK-CONH2), 3 μM; JAK3, 0.5 nM; and DMSO, 1%. Dose response curve were generated to determine the concentration required for IC50 of JAK3 activity.

JAK1 = JAK1 (Homo sapiens, UniProt P23458); assay: JAK Kinase Assay (JAK1, Caliper EZ Reader, fluoresceinated peptide); conditions: ATP 76.5 μM; JAK1 10 nM; 120 minutes at room temperature; read-out: JAK1 inhibition
JAK1, sequence (P23458 whole entry, species assumed): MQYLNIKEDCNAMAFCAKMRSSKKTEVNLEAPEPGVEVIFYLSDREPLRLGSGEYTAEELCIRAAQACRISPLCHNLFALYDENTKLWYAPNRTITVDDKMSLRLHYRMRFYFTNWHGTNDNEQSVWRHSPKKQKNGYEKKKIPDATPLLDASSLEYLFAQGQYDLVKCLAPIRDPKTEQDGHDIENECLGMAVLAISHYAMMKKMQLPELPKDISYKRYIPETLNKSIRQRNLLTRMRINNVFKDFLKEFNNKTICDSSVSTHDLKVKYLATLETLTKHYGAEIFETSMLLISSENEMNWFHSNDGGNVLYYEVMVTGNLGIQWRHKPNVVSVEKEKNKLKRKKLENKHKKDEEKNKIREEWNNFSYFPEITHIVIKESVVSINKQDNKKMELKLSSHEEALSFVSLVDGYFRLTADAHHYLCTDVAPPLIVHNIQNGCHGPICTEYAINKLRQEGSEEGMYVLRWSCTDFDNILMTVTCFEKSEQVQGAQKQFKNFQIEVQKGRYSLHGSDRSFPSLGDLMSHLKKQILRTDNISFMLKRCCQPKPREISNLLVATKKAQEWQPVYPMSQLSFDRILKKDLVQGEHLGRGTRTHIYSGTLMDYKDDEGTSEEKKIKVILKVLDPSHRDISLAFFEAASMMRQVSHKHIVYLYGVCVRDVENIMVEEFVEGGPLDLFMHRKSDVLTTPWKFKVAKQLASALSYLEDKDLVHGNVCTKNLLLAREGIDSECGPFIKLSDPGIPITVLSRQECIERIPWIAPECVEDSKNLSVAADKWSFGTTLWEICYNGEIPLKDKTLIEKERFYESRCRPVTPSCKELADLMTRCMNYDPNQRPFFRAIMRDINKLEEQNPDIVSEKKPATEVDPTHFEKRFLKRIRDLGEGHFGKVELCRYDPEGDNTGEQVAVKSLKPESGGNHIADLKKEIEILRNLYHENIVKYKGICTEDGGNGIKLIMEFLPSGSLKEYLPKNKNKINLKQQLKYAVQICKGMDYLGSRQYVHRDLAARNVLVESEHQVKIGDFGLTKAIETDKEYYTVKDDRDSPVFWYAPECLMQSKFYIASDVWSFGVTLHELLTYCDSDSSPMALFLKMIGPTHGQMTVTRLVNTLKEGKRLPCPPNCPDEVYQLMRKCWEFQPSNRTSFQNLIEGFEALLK

JAK2, sequence (O60674 whole entry, species assumed): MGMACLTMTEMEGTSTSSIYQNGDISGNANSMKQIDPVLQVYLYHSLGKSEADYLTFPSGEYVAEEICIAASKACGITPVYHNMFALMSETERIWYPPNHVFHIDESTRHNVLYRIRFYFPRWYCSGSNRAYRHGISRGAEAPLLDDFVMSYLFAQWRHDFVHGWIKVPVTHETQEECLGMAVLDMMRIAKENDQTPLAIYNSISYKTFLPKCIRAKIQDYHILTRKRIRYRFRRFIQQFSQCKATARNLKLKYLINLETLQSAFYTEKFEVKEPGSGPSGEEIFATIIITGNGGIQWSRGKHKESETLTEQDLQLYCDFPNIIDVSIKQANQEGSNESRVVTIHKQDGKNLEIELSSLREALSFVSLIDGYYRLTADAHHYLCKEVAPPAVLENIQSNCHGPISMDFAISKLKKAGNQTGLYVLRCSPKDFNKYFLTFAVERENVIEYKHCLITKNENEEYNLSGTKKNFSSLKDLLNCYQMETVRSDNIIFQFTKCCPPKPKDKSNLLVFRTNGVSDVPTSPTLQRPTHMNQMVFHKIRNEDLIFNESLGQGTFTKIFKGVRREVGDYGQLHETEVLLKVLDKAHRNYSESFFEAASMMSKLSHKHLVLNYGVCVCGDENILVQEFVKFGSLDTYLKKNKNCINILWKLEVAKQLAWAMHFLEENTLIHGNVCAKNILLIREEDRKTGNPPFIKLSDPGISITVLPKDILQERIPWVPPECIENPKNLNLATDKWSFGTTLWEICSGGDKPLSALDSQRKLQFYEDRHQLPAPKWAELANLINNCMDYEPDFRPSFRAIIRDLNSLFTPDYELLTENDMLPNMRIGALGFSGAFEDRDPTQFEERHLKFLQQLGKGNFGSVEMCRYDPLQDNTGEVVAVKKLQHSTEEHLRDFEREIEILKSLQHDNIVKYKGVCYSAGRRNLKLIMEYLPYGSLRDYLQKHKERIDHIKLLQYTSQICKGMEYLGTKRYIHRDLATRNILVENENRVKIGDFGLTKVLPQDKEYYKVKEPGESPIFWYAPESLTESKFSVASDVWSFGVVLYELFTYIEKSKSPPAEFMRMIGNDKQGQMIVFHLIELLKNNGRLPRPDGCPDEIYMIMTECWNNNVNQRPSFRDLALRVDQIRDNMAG

Compound	IC50 (JAK2)	IC50 (JAK3)	IC50 (JAK1)
Cc1cc(C(=O)N2CC3(CC(N(C)c4ncnc5[nH]ccc45)C3)C2)ccc1C#N [Compound 34, 2-methyl-4-(6-(methyl(7H-pyrrolo[2,3-d]pyrimidin-4-yl)amino)-2-azaspiro[3.3]heptane-2-carbonyl)benzonitrile]	1000 to 10000 nM	1000 to 10000 nM	10 to 100 nM
CN(c1ncnc2[nH]ccc12)C1CC2(C1)CN(C(=O)c1ccc(C#N)nc1)C2 [Compound 35, 5-(6-(methyl(7H-pyrrolo[2,3-d]pyrimidin-4-yl)amino)-2-azaspiro[3.3]heptane-2-carbonyl)picolinonitrile]	1000 to 10000 nM	1000 to 10000 nM	10 to 100 nM
CN(c1ncnc2[nH]ccc12)C1CC2(C1)CN(C(=O)c1ccc(C#N)c(Cl)c1)C2 [Compound 36, 2-chloro-4-(6-(methyl(7H-pyrrolo[2,3-d]pyrimidin-4-yl)amino)-2-azaspiro[3.3]heptane-2-carbonyl)benzonitrile]	1000 to 10000 nM	1000 to 10000 nM	10 to 100 nM
Cc1cc(C#N)ccc1C(=O)N1CC2(CC(N(C)c3ncnc4[nH]ccc34)C2)C1 [Compound 44, 3-methyl-4-(6-(methyl(7H-pyrrolo[2,3-d]pyrimidin-4-yl)amino)-2-azaspiro[3.3]heptane-2-carbonyl)benzonitrile]	1000 to 10000 nM	≥ 10000 nM	100 to 1000 nM
CN(c1ncnc2[nH]ccc12)C1CC2(C1)CN(C(=O)c1cc[nH]n1)C2 [Compound 45, (6-(methyl(7H-pyrrolo[2,3-d]pyrimidin-4-yl)amino)-2-azaspiro[3.3]heptan-2-yl)(1H-pyrazol-3-yl)methanone]	1000 to 10000 nM	≥ 10000 nM	1000 to 10000 nM
C#Cc1ccc(C(=O)N2CC3(CC(N(C)c4ncnc5[nH]ccc45)C3)C2)nc1 [Compound 48, (5-ethynylpyridin-2-yl)(6-(methyl(7H-pyrrolo[2,3-d]pyrimidin-4-yl)amino)-2-azaspiro[3.3]heptan-2-yl)methanon]	1000 to 10000 nM	1000 to 10000 nM	10 to 100 nM
CN(c1ncnc2[nH]ccc12)C1CC2(C1)CN(C(=O)c1ccc3c(c1)ncn3C)C2 [Compound 49, (6-(methyl(7H-pyrrolo[2,3-d]pyrimidin-4-yl)amino)-2-azaspiro[3.3]heptan-2-yl)(1-methyl-1H-benzo[d]imidazol-5-yl)methanone]	1000 to 10000 nM	≥ 10000 nM	1000 to 10000 nM
CN(c1ncnc2[nH]ccc12)C1CC2(C1)CN(C(=O)c1ccn(C)n1)C2 [Compound 50, (6-(methyl(7H-pyrrolo[2,3-d]pyrimidin-4-yl)amino)-2-azaspiro[3.3]heptan-2-yl)(1-methyl-1H-pyrazol-3-yl)methanone]	≥ 10000 nM	≥ 10000 nM	100 to 1000 nM

Other lines, results leading:

IC50 (JAK2)	IC50 (JAK3)	IC50 (JAK1)	Compound
1000 to 10000 nM	1000 to 10000 nM	100 to 1000 nM	CN(c1ncnc2[nH]ccc12)C1CC2(C1)CN(C(=O)Cc1c[nH]c3ccccc13)C2 [Compound 23, 2-(1H-indol-3-yl)-1-(6-(methyl(7H-pyrrolo[2,3-d]pyrimidin-4-yl)amino)-2-azaspiro[3.3]heptan-2-yl)ethanone]
1000 to 10000 nM	≥ 10000 nM	100 to 1000 nM	Cc1cncc(C(=O)N2CC3(CC(N(C)c4ncnc5[nH]ccc45)C3)C2)n1 [Compound 29, (6-(methyl(7H-pyrrolo[2,3-d]pyrimidin-4-yl)amino)-2-azaspiro[3.3]heptan-2-yl)(6-methylpyrazin-2-yl)methanone]
100 to 1000 nM	1000 to 10000 nM	10 to 100 nM	CN(c1ncnc2[nH]ccc12)C1CC2(C1)CN(C(=O)c1ccc(C#N)cc1Cl)C2 [Compound 37, 3-chloro-4-(6-(methyl(7H-pyrrolo[2,3-d]pyrimidin-4-yl)amino)-2-azaspiro[3.3]heptane-2-carbonyl)benzonitrile]
100 to 1000 nM	1000 to 10000 nM	10 to 100 nM	CN(c1ncnc2[nH]ccc12)C1CC2(C1)CN(C(=O)c1ccc(I)cc1)C2 [Compound 38, (4-iodophenyl)(6-(methyl(7H-pyrrolo[2,3-d]pyrimidin-4-yl)amino)-2-azaspiro[3.3]heptan-2-yl)methanone]
100 to 1000 nM	1000 to 10000 nM	10 to 100 nM	CN(c1ncnc2[nH]ccc12)C1CC2(C1)CN(C(=O)c1ccc(C3CC3)cc1)C2 [Compound 39, (4-cyclopropylphenyl)(6-(methyl(7H-pyrrolo[2,3-d]pyrimidin-4-yl)amino)-2-azaspiro[3.3]heptan-2-yl)methanone]
100 to 1000 nM	1000 to 10000 nM	≤ 10 nM	C#Cc1ccc(C(=O)N2CC3(CC(N(C)c4ncnc5[nH]ccc45)C3)C2)cc1C [Compound 40, (4-ethynyl-3-methylphenyl)(6-(methyl(7H-pyrrolo[2,3-d]pyrimidin-4-yl)amino)-2-azaspiro[3.3]heptan-2-yl)methanone]
10 to 100 nM	1000 to 10000 nM	≤ 10 nM	C#Cc1ccc(C(=O)N2CC3(CC(N(C)c4ncnc5[nH]ccc45)C3)C2)c(F)c1 [Compound 41, (4-ethynyl-2-fluorophenyl)(6-(methyl(7H-pyrrolo[2,3-d]pyrimidin-4-yl)amino)-2-azaspiro[3.3]heptan-2-yl)methanone]
10 to 100 nM	1000 to 10000 nM	≤ 10 nM	CC#Cc1ccc(C(=O)N2CC3(CC(N(C)c4ncnc5[nH]ccc45)C3)C2)cc1 [Compound 42, (6-(methyl(7H-pyrrolo[2,3-d]pyrimidin-4-yl)amino)-2-azaspiro[3.3]heptan-2-yl)(4-(prop-1-yn-1-yl)phenyl)methanone]
100 to 1000 nM	1000 to 10000 nM	≤ 10 nM	C#Cc1ccc(C(=O)N2CC3(CC(N(C)c4ncnc5[nH]ccc45)C3)C2)c(Cl)c1 [Compound 43, (2-chloro-4-ethynylphenyl)(6-(methyl(7H-pyrrolo[2,3-d]pyrimidin-4-yl)amino)-2-azaspiro[3.3]heptan-2-yl)methanone]
100 to 1000 nM	≥ 10000 nM	≤ 10 nM	C#Cc1ccc(C(=O)N2CC3(CC(N(C)c4ncnc5[nH]ccc45)C3)C2)cc1Cl [Compound 46, (3-chloro-4-ethynylphenyl)(6-(methyl(7H-pyrrolo[2,3-d]pyrimidin-4-yl)amino)-2-azaspiro[3.3]heptan-2-yl)methanone]
100 to 1000 nM	1000 to 10000 nM	≤ 10 nM	C#Cc1ccc(C(=O)N2CC3(CC(N(C)c4ncnc5[nH]ccc45)C3)C2)cc1F [Compound 47, (4-ethynyl-3-fluorophenyl)(6-(methyl(7H-pyrrolo[2,3-d]pyrimidin-4-yl)amino)-2-azaspiro[3.3]heptan-2-yl)methanone]
